Like-named read-outs stand apart in the source and are kept apart here.
Legend:
[1] = system: transient outward current (Ito) in rat ventricular cell; assay: Transient outward current (Ito), voltage clamp; format: cell-based; details: for inhibition at 6 µM: Rattus norvegicus, read-out: Ito
Excerpt: (§1) Ventricular cells isolated from rats and guinea pigs were placed in a chamber mounted on an inverted microscope, the effects of the test compounds on the action potential and the membrane current were studied by single cell current clamp and voltage clamp technique.

[2] = system: delayed rectifier (IK) in guinea pig ventricular cell; assay: Delayed rectifier potassium current (IK), voltage clamp; format: cell-based; details: Cavia porcellus, guinea pig ventricle cell, read-out: Degree of inhibition of IK
Excerpt: as §1

[3] = system: rat right atria, left atria and right ventricular strips; assay: Contractile force and heart rate of isolated rat atria and right ventricle; details: n = 6, mean ± S.E.M.
Protocol: Method: After anesthetizing rats with pentobarbital, the heart was taken out, both the atrium and the right ventricle were separately placed in 10 ml of Tyrode solution. The spontaneous contraction of the right atrium was recorded. The contraction of the left atrium and the right ventricle was driven by stimulation at a frquency of twice per second.

myocyte action potential = assay: Action potential of myocytes, single cell current clamp; format: cell-based, rat
Excerpt: as §1

[4] = system: calcium current (ICa) of rat ventricle cell; assay: Calcium inward current (ICa), voltage clamp; format: cell-based
Excerpt: as §1

[5] = system: sodium current (INa), sodium channel; assay: Sodium inward current (INa), voltage clamp; format: cell-based, rat; details: for V1/2 of potential-dependent steady state inactivation of sodium current: control -60.9 mV
Excerpt: as §1

[6] = system: guinea pig left atrium treated with 0.6 μM ouabain; assay: Ouabain induced arrhythmia in guinea pig left atria; details: for minimal effective concentration: Cavia porcellus, read-out: Concentration that suppressed the ouabain-induced arrhythmia
Protocol: The left atrium of guinea pigs was first treated with 0.6 μM of ouabain and the contractile force was monitored.

Question: What does the source list for `C=CCN(C)CCc1cc(O)c(OC)c2c1ccc1cc(O)c(OC)cc12` [compound 1, N-allylsecoboldine]?
Answer: Shift of the potential-dependent inactivation curve of Ito ([1]; FIG. 6, 0.6 μM): to the right; inhibition at 1 µM [2]: 20 to 30%; inhibition at 3 µM ([2]; 3 μM): 50 to 60%; inhibition at 9 µM ([2]; 9 μM): 70 to 80%; activity at 9 µM ([3]; left atria driven at 2 Hz, read-out: Contractile tension (%)): 126 ± 6.3%; activity at 9 µM ([3]; right atria, spontaneous beating rate, read-out: H. R. (%)): 58.5 ± 3.4%; activity at 9 µM ([3]; right atria, spontaneous contraction, read-out: Contractile tension (%)): 164 ± 14%; activity at 9 µM ([3]; right ventricle strips driven at 2 Hz, read-out: Contractile tension (%)): 126 ± 7.3%; Prolongation of the myocyte action potential (myocyte action potential; 1 μM): prolongation of the myocyte action potential was seen; Duration of the action potential (prolonged to) (myocyte action potential; 3 μM, driven at 0.2 Hz): five; Action potential plateau (myocyte action potential; concentration not given, FIG. 4): increased it; Inhibitory effect on calcium current ([4]; 3 μM): did not show any inhibitory effect; activity at 12 µM ([4]; 12 μM, added in cumulative manner, rat ventricle cell, read-out: Calcium current (ICa), % of control): 71%; inhibition at 12 µM ([4]; Rattus norvegicus, 0.1 h, 12 μM, non-treated cell retained 79% at 6 minutes, read-out: Actual degree of inhibition in calcium current, corrected for spontaneous rundown): 9%; V1/2 of potential-dependent steady state inactivation of sodium current ([5]; 3 μM): -70.8 mV; V1/2 of potential-dependent steady state inactivation of sodium current ([5]; 9 μM): -85.9 mV; Sodium current, % of control ([5]; 0.9 to 1.2 μM, guinea pig atrial cell or rat ventricle cell): 25 % of control

Question: Which minimal effective concentration [6] does the source give for `C=CCN(C)CCc1cc(O)c(OC)c2c1ccc1cc(OC)c(OC)cc12` [compound 3, N-allylsecopredicentrine] here?
Answer: 30 µM

Question: `C=CCN(C)CCc1cc(OC)c(OC)c2c1ccc1cc(OC)c(OC)cc12` [compound 4, N-allylsecoglaucine] was tested. Which “Arrhythmia induced by Ouabain: effect on rhythm” value ([6]; FIG. 12, ouabain 0.6 μM) did it give?
Answer: conversion to normal paced rhythm

Question: What about the “Effect on the myocyte action potential” value (myocyte action potential; compared with N-allylsecoboldine) of the same compound?
Answer: very similar effect on the myocyte action potential as N-allylsecoboldine

Question: What does the source list for `COc1cc2c(ccc3c(CCN(C)Cc4ccccc4)cc(O)c(OC)c32)cc1O` [compound 5, N-benzylsecoboldine]?
Answer: Inhibitory effect on transient outward current (Ito) versus quinidine ([1]; 3 μM, rat ventricular cell): more profound inhibitory effect; inhibition at 1 µM [2]: 30%

Question: With `COc1cc2ccc3c(CCN(C)C)cc(OC)c(OC)c3c2cc1OC` [compound 8, N-methylsecoglaucine] as the compound, how does the inhibition at 6 µM [1] read?
Answer: 70%

Question: Which inhibition at 6 µM [1] does the source give for `COc1cc2ccc3c(CCN(C)C)cc(O)c(OC)c3c2cc1OC` [compound 9, N-methylsecopredicentrine] here?
Answer: 60%

Question: How did the inhibition at 6 µM [1] turn out when `COc1cc2c(ccc3c(CCN(C)C#N)cc(O)c(OC)c32)cc1O` [compound 26, N-cyanosecoboldine] was run?
Answer: 80%

Question: With `CCN(CC)CC(=O)Nc1c(C)cccc1C` [lidocaine, reference compound] as the compound, how does the minimal effective concentration ([6]; guinea pig atrium, 0.6 μM ouabain) read?
Answer: ≥ 30 µM

Question: Which inhibition at 3 µM ([1]; 3 μM, rat ventricular cell, read-out: Reduction of Ito) does the source give for `C=C[C@H]1C[N@@]2CC[C@H]1C[C@@H]2[C@@H](O)c1ccnc2ccc(OC)cc12` [quinidine, reference compound] here?
Answer: ~60%

Question: What about the Action potential plateau (myocyte action potential; 30 MM) of the same compound?
Answer: decreased action potential plateau

From patent US5594033A, “Secoaporphine compound on arrhythmia” (National Science Council, priority 1993, dated 1997)
